Laboratory results from US20100234419A1, “SUBSTITUTED 3-AMINOISOXAZOLOPYRIDINES AS KCNQ2/3 MODULATORS” (GRUNENTHAL GMBH, priority 2009, published 2010).

Target: T1, KCNQ2/3 channels (Homo sapiens, UniProt O43525+O43526)
T1 construct: expressed in transfected cells; host or cells: CHO-K1 cells, kept under selection antibiotics
Test: Fluorescence assay using a voltage sensitive dye (fluorimetry)
Assay type: cell-based
Conditions: for Emax at 10 µM: relative to retigabine = 100%, read-out: Fluorimetry % efficacy @ 10 μM (retigabine = 100%); for Emax at 10 µM / EC50: CHO-K1 cells expressing KCNQ2/3; for KCNQ2/3 stimulation at 10 μM: Table 4 comparison experiments; for activity towards the KCNQ2/3 receptor: nitrogen atom introduced into the phenyl ring of the benzoisoxazole structure
Protocol: […] CHO-K1 cells expressing KCNQ2/3 channels are cultivated adherently at 37° C., 5% CO2 and 95% humidity in cell culture bottles (e.g. 80 cm^2 TC flasks, Nunc) with DMEM-high glucose (Sigma Aldrich, D7777) including 10% FCS (PAN Biotech, e.g. 3302-P270521) or alternatively MEM Alpha Medium (1×, liquid, Invitrogen, #22571), 10% fetal calf serum (FCS) (Invitrogen, #10270-106, heat-inactivated) and the necessary selection antibiotics.
Before being sown out for the measurements, the cells are washed with a 1×DPBS buffer without Ca^2+/Mg^2+ (e.g. Invitrogen, #14190-094) and detached from the bottom of the culture vessel by means of Accutase (PAA Laboratories, #L11-007) (incubation with Accutase for 15 min at 37° C.). The cell count then present is determined using a CASY™ cell counter (TCC model, Scharfe System) in order subsequently to apply, depending on the density optimization for the individual cell line, 20,000-30,000 cells/well/100 μl of the described nutrient medium to 96-well measuring plates of the Corning™ CelIBIND™ type (Flat Clear Bottom Black Polystyrene Microplates, #3340). Incubation is then carried out for one hour at room temperature, without gassing or adjusting the humidity, followed by incubation for 24 hours at 37° C., 5% CO2 and 95% humidity.
The voltage-sensitive fluorescent dye from the Membrane Potential Assay Kit (Red™ Bulk format part R8123 for FLIPR, MDS Analytical Technologies™) is prepared by dissolving the contents of a vessel Membrane Potential Assay Kit Red Component A in 200 ml of extracellular buffer (ES buffer, 120 mM NaCl, 1 mM KCl, 10 mM HEPES, 2 mM CaCl2, 2 mM MgCl2, 10 mM glucose; pH 7.4). After removal of the nutrient medium, the cells are washed with 200 μl of ES buffer, then covered with a layer of 100 μl of the dye solution prepared above and incubated for 45 min at room temperature with the exclusion of light.
The fluorescence measurements are carried out with a BMG Labtech FLUOstar™ BMG Labtech NOVOstar™ or BMG Labtech POLARstar™ instrument (525 nm excitation, 560 nm emission, Bottom Read mode). After incubation of the dye, 50 μl of the test substances in the desired concentrations, or 50 μl of ES buffer for control purposes, are introduced into separate cavities of the measuring plate and incubated for 30 min at room temperature while being shielded from light. The fluorescence intensity of the dye is then measured for 5 min and the fluorescence value F1 of each well is thus determined at a given, constant time. […] of a 100 mM KCl solution (final concentration […]) are then added to each well. The change in fluorescence is subsequently measured until all the relevant measured values have been obtained (mainly 5-30 min). At a given time after KCl application, a fluorescence value F2 is determined, in this case at the time of the fluorescence peak.
For calculation, the fluorescence intensity F2 is compared with the fluorescence intensity F1, and the agonistic activity of the target compound on the potassium channel is determined therefrom. F2 and F1 are calculated as follows: […]
Calculations of EC50 values are carried out with the aid of ‘Prism v4.0’ software (GraphPad Software™).

Emax at 10 µM [%]	EC50 [nM]	KCNQ2/3 stimulation at 10 μM [%]	activity towards the KCNQ2/3 receptor	SMILES
73				Cc1cc(C)cc(C(C)Nc2noc3cnccc23)c1 (stereo not drawn) [Exemplary compound 15, N-(1-(3,5-dimethyl-phenyl)ethyl)-isoxazolo[5,4-c]pyridin-3-amine]
78				CC(Nc1noc2cnccc12)c1ccc(C(F)(F)F)cc1 (stereo not drawn) [Exemplary compound 14, N-(1-(4-(trifluoromethyl)phenyl)-ethyl)isoxazolo[5,4-c]pyridin-3-amine]
15				Cc1cc(C)cc(C(C)Nc2noc3ccncc23)c1 (stereo not drawn) [Exemplary compound 16, N-(1-(3,5-dimethyl-phenyl)ethyl)-isoxazolo[4,5-c]pyridin-3-amine]
43				CC(Nc1noc2ncccc12)c1ccc(C(F)(F)F)cc1 (stereo not drawn) [Exemplary compound 1, N-(1-(4-(trifluoromethyl)phenyl)ethyl)-isoxazolo[5,4-b]pyridin-3-amine]
49	899			CC(Nc1noc2ccncc12)c1ccc(SC(F)(F)F)cc1 (stereo not drawn) [Exemplary compound 17, N-(1-(4-(trifluoromethylthio)phenyl)ethyl)-isoxazolo[4,5-c]pyridin-3-amine]
41				FC(F)(F)Sc1ccc(CNc2noc3nc(C(F)(F)F)ccc23)cc1 [Exemplary compound 19, N-(4-(trifluoromethylthio)benzyl)-6-trifluoromethyl-isoxazolo[5,4-b]pyridin-3-amine]
43				Cc1cc(C)cc(C(C)Nc2noc3nc(C(F)(F)F)ccc23)c1 (stereo not drawn) [Exemplary compound 18, N-(1-(3,5-dimethylphenyl)ethyl)-6-(trifluoromethyl)isoxazolo[5,4-b]-pyridin-3-amine]
65				Cc1cc(C)cc(C(C)Nc2noc3ncccc23)c1 (stereo not drawn) [Exemplary compound 4, N-(1-(3,5-dimethyl-phenyl)ethyl)-isoxazolo[5,4-b]pyridin-3-amine]
38	411			FC(F)(F)Sc1ccc(CNc2noc3nc4ccccc4cc23)cc1 [Exemplary compound 24, N-(4-(trifluoromethylthio)benzyl)-isoxazolo[5,4-b]quinolin-3-amine]
49				Cc1ccc2c(NCc3ccc(SC(F)(F)F)cc3)noc2n1 [Exemplary compound 20, 6-methyl-N-(4-(trifluoromethylthio)benzyl)-isoxazolo[5,4-b]pyridin-3-amine]
77	1690	77	still present	FC(F)(F)Sc1ccc(CNc2noc3ncccc23)cc1 [Exemplary compound 2, N-(4-(Trifluoromethylthio)benzyl)-isoxazolo[5,4-b]pyridin-3-amine]
65		65	still present	FC(F)(F)Sc1ccc(CNc2noc3cnccc23)cc1 [Exemplary compound 6, N-(4-(trifluoromethylthio)benzyl)-isoxazolo[5,4-c]pyridin-3-amine]
39		39	still present	FC(F)(F)Sc1ccc(CNc2noc3ccncc23)cc1 [Exemplary compound 12, N-(4-(trifluoromethylthio)benzyl)-isoxazolo[4,5-c]pyridin-3-amine]
29				Cc1cc(C)cc(CNc2noc3cnccc23)c1 [Exemplary compound 7, N-(3,5-dimethyl-benzyl)isoxazolo[5,4-c]pyridin-3-amine]
39				Cc1cc(C)cc(C(C)Nc2noc3c(C(F)(F)F)nccc23)c1 (stereo not drawn) [Exemplary compound 21, N-(1-(3,5-dimethyl-phenyl)ethyl)-7-trifluoromethyl-isoxazolo[5,4-c]pyridin-3-amine]
		75		FC(F)(F)Sc1ccc(CNc2noc3ccccc23)cc1 [E1, reference compound]
86		86	still present	FC(F)(F)Sc1ccc(CNc2noc3cccnc23)cc1 [Exemplary compound 9, N-(4-(trifluoromethylthio)benzyl)-isoxazolo[4,5-b]pyridin-3-amine]
34				Cc1cc(C)cc(CNc2noc3ncccc23)c1 [Exemplary compound 3, N-(3,5-dimethyl-benzyl)isoxazolo[5,4-b]pyridin-3-amine]
27				FC(F)(F)Sc1ccc(CNc2noc3c(C(F)(F)F)nccc23)cc1 [Exemplary compound 23, N-(4-(trifluoromethylthio)benzyl)-7-trifluoromethyl-isoxazolo[5,4-c]pyridin-3-amine]
19				FC(F)(F)Sc1ccc(CNc2noc3ccnc(Cl)c23)cc1 [Exemplary compound 25, 4-chloro-N-(4-(trifluoromethylthio)benzyl)-isoxazolo[4,5-c]pyridin-3-amine]
27				Cc1cc(C)cc(C(C)Nc2noc3cccnc23)c1 (stereo not drawn) [Exemplary compound 10, N-(1-(3,5-dimethyl-phenyl)ethyl)-isoxazolo[4,5-b]pyridin-3-amine]
50				CC(Nc1noc2cccnc12)c1ccc(SC(F)(F)F)cc1 (stereo not drawn) [Exemplary compound 13, N-(1-(4-(trifluoromethylthio)phenyl)-ethyl)isoxazolo[4,5-b]pyridin-3-amine]
97				CC(Nc1noc2ncccc12)c1ccc(SC(F)(F)F)cc1 (stereo not drawn) [Exemplary compound 5, N-(1-(4-(trifluoromethylthio)phenyl)ethyl)-isoxazolo[5,4-b]pyridin-3-amine]
49	231			Cc1cc(C)cc(C(C)Nc2noc3nc(C)ccc23)c1 (stereo not drawn) [Exemplary compound 22, N-(1-(3,5-dimethylphenyl)ethyl)-6-methyl-isoxazolo[5,4-b]pyridin-3-amine]
